We go through 1 compound from EPA's ToxValDB 9.5 (doi:10.2903/j.efsa.2017.4874).

For one data set, the system named is Aphidius rhopalosiphi. Description: LR50; higher = less toxic. Conditions: not reported; mortality.
For the next data set, the system named is Oryctolagus sp. The following applies: developmental; development.
The test system of another data set is Apis mellifera. Conditions: acute, mortality.
The subject of a further data set is Anas platyrhynchos. The following applies: short-term; oral; feed; mortality.
In a further data set the test system is Oncorhynchus mykiss. The following applies: acute; duration: 96 hours; mortality.
The subject of the next data set is Danio rerio. The following applies: subchronic; duration: 35 days; reproduction.
For another data set, the system named is Folsomia candida. Conditions: chronic/long-term; mortality.
Another data set has as its system Tagia sp. Conditions: chronic/long-term; growth.
The subject of another data set is Daphnia magna. Conditions: chronic/long-term; duration: 21 days; reproduction.
A further data set has as its system Mus musculus. The following applies: chronic.
In the next data set the test system is Colinus virginianus. Conditions: for LD50: acute, oral, mortality.
Another data set concerns Rattus norvegicus. The following applies: oral.

In brackets after ≈: the same amount, converted by molar mass.

A word on the NOAEL: it is the highest tested level that showed no adverse finding. Usually LC50 stands for the concentration that kills 50% of the test population.

`O=C(Nc1ccccc1)Nc1ccnc(Cl)c1` [Forchlorfenuron] displayed an LR50 with Aphidius rhopalosiphi of over 10 g/ha. The NOAEL was determined as 50 mg/kg-day in the data set with Oryctolagus sp.; 5 mg/kg-day in the data set on Mus musculus (duration: 24 months, histopathology: neoplastic); 4.9 mg/kg-day with Mus musculus (histopathology: nonneoplastic); 11 mg/kg-day with Rattus norvegicus (reproduction developmental, diet, body weight); 16.2 mg/kg-day in the data set on Rattus norvegicus (subchronic, duration: 90 days, organ weight). Also, the LD50 in the data set on Apis mellifera (dermal) was over 30 µg/piece; with Apis mellifera (oral, unspecified), over 34.1 µg/piece; with Anas platyrhynchos, over 3120 mg/kg-day; in the data set with Colinus virginianus (diet) it was over 3120 mg/kg-day; in the data set with Colinus virginianus it was over 2250 mg/kg-day; in the data set with Rattus norvegicus (acute, mortality) it was 4920 mg/kg-day. Moreover, the LC50 with Oncorhynchus mykiss turned out to be 1.93 µg/mL (≈ 7.79 µM). Further, the NOEC with Danio rerio is 1.01 mg/L; in the data set on Folsomia candida, 3.72 mg/kg; in the data set on Tagia sp. it was 0.3 mg/kg; in the data set on Daphnia magna, 1.96 mg/L; in the data set with Colinus virginianus (reproduction developmental), 88.4 mg/kg-day.
